Reference: patent US9187472B2 (AbbVie Inc., priority 2012, dated 2015)

Key:
[1] = system: PC3 cells; assay: NAMPT Cell Proliferation Assay; type: cell-based; conditions: Homo sapiens, PC-3, 120 h, 5 days incubation, cell viability by Cell Titer Glo
Procedure, shortened: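 Seed PC3 at 500 cells/well (RPMI, 10% HI-FBS), attach overnight; add compound, 10-fold series 10 μM → 1×10^−5 μM; incubate 5 d, 37° C/5% CO2; luminescent viability readout; fit % inhibition sigmoidally for IC50.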

[2] = target: NAMPT (Homo sapiens, UniProt P43490); assay: TR-FRET Binding Assay of NAMPT with PRPP; conditions: with 200 μM PRPP and 2.5 mM ATP; 2 nM NAMPT, 2 nM probe, 16 hours equilibration
Procedure, shortened: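 TR-FRET probe-displacement binding with 2 nM NAMPT, 2 nM probe and 1 nM Tb-anti-His antibody, run in the presence of 200 μM PRPP and 2.5 mM ATP at 2% DMSO. Equilibrated 16 hours before reading so test compounds could undergo enzymatic modification.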

[3] = target: NAMPT (human, recombinant, C-terminally His-tagged) (Homo sapiens, UniProt P43490); assay: Time-Resolved Fluorescence Resonance Energy Transfer (TR-FRET) Binding Assay of NAMPT; conditions: without substrates; 6.8 nM NAMPT, 200 nM probe, 3 hours equilibration
Procedure, shortened: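 11-pt half-log compound series; final 6.8 nM NAMPT, 200 nM OG488 nicotinamide-competitive probe, 1 nM Tb-anti-His Ab, 2% DMSO, HEPES pH 7.5/NaCl/MgCl2/DTT/glycerol buffer. 3 h RT equilibration. Em520/Em495 ratio (Ex 337 nm), control-normalized, 4-parameter fit → IC50.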

Chain of NAMPT (P43490 whole entry): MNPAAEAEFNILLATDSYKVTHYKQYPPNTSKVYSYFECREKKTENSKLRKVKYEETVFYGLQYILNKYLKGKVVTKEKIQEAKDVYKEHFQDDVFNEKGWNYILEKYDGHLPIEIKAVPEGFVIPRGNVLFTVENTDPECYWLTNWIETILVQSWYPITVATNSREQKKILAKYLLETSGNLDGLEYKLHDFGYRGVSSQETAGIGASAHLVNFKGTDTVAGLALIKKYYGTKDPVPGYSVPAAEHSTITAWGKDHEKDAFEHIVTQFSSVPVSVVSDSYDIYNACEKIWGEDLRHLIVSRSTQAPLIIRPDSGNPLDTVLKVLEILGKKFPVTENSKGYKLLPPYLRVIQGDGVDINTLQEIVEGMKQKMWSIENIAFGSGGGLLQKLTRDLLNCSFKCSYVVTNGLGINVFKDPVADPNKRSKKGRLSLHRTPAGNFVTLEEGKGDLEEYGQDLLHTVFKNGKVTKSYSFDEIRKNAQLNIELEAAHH
Chain of NAMPT (human, recombinant, C-terminally His-tagged) (P43490 whole entry): as above

SMILES | IC50 [1] | IC50 [2] | IC50 [3]
CS(=O)(=O)CCn1cc(-c2ccc(C(=O)NCc3ccn4ccnc4c3)s2)cn1 [Example 300, N-(imidazo[1,2-a]pyridin-7-ylmethyl)-5-{1-[2-(methylsulfonyl)ethyl]-1H-pyrazol-4-yl}thiophene-2-carboxamide] | 28.7 nM | 0.169 nM | 61.4 nM
CC(C)(C)OC(=O)N1CCC(c2ccc(C(=O)NCc3ccn4ccnc4c3)cc2)C1 (stereo not drawn) [Example 301, tert-butyl 3-{4-[(imidazo[1,2-a]pyridin-7-ylmethyl)carbamoyl]phenyl}pyrrolidine-1-carboxylate] | 25.8 nM | 0.301 nM | 288 nM
CC(C)(C)OC(=O)N1CCC(c2ccc(NC(=O)NCc3ccn4ccnc4c3)cc2)C1 (stereo not drawn) [Example 302, tert-butyl 3-(4-{[(imidazo[1,2-a]pyridin-7-ylmethyl)carbamoyl]amino}phenyl)pyrrolidine-1-carboxylate] | 19.3 nM | 0.435 nM | 160 nM
O=C(NCc1ccn2ccnc2c1)Nc1ccc(NS(=O)(=O)c2ccccc2-c2ccccc2)cc1 [Example 303, N-(4-{[(imidazo[1,2-a]pyridin-7-ylmethyl)carbamoyl]amino}phenyl)biphenyl-2-sulfonamide] | 1.79 nM | 0.169 nM | 9.99 nM
C[C@@H](O)Cn1cc(-c2ccc(C(=O)NCc3ccn4ccnc4c3)s2)cn1 [Example 304, 5-{1-[(2R)-2-hydroxypropyl]-1H-pyrazol-4-yl}-N-(imidazo[1,2-a]pyridin-7-ylmethyl)thiophene-2-carboxamide] | 18.8 nM | 0.169 nM | 66.2 nM
O=C(CC1CCCC1)Nc1ccc(C(=O)NCc2ccn3ccnc3c2)cc1F [Example 305, 4-[(cyclopentylacetyl)amino]-3-fluoro-N-(imidazo[1,2-a]pyridin-7-ylmethyl)benzamide] | 1170 nM | 0.449 nM | 494 nM
CC(C)C(=O)N1CC=C(c2ccc(NC(=O)NCc3ccn4ccnc4c3)c(F)c2)CC1 [Example 306, 1-{2-fluoro-4-[1-(2-methylpropanoyl)-1,2,3,6-tetrahydropyridin-4-yl]phenyl}-3-(imidazo[1,2-a]pyridin-7-ylmethyl)urea] | 21.9 nM | 0.169 nM | 144 nM
O=C(NCc1ccn2ccnc2c1)Nc1ccc(C2=CCN(C(=O)C3CCCO3)CC2)cc1F (stereo not drawn) [Example 307, 1-{2-fluoro-4-[1-(tetrahydrofuran-2-ylcarbonyl)-1,2,3,6-tetrahydropyridin-4-yl]phenyl}-3-(imidazo[1,2-a]pyridin-7-ylmethyl)urea] | 13.6 nM | 0.169 nM | 50.8 nM
O=C(NCc1ccn2ccnc2c1)c1ccc(C2CCN(C(=O)[C@H]3CCOC3)CC2)cc1 [Example 308, N-(imidazo[1,2-a]pyridin-7-ylmethyl)-4-{1-[(3S)-tetrahydrofuran-3-ylcarbonyl]piperidin-4-yl}benzamide] | 29.5 nM | 0.169 nM | 306 nM
O=C(NCc1ccn2ccnc2c1)c1ccc(C2CCN(C(=O)[C@@H]3CCOC3)CC2)cc1 [Example 309, N-(imidazo[1,2-a]pyridin-7-ylmethyl)-4-{1-[(3R)-tetrahydrofuran-3-ylcarbonyl]piperidin-4-yl}benzamide] | 54.8 nM | 0.169 nM | 117 nM
O=C(NCc1ccn2ccnc2c1)c1ccc(C2CCN(C(=O)[C@H]3CCCO3)CC2)cc1 [Example 310, N-(imidazo[1,2-a]pyridin-7-ylmethyl)-4-{1-[(2R)-tetrahydrofuran-2-ylcarbonyl]piperidin-4-yl}benzamide] | 24.4 nM | 0.217 nM | 564 nM
O=C(NCc1ccn2ccnc2c1)c1ccc(C2CCN(C(=O)[C@@H]3CCCO3)CC2)cc1 [Example 311, N-(imidazo[1,2-a]pyridin-7-ylmethyl)-4-{1-[(2S)-tetrahydrofuran-2-ylcarbonyl]piperidin-4-yl}benzamide] | 19.1 nM | 0.274 nM | 289 nM
O=C(NCc1ccn2ccnc2c1)c1ccc(C2CCN(C(=O)CC3CC3)CC2)cc1 [Example 312, 4-[1-(cyclopropylacetyl)piperidin-4-yl]-N-(imidazo[1,2-a]pyridin-7-ylmethyl)benzamide] | 65 nM | 0.243 nM | 165 nM
CC(=O)N1CCC(c2ccc(C(=O)NCc3ccn4ccnc4c3)cc2)CC1 [Example 313, 4-(1-acetylpiperidin-4-yl)-N-(imidazo[1,2-a]pyridin-7-ylmethyl)benzamide] | 820 nM | 0.36 nM | 531 nM
CC(C)(C)OC(=O)N1CC=C(c2ccc(CC(=O)Nc3ccc4nccn4c3)cc2)CC1 [Example 314, tert-butyl 4-{4-[2-(imidazo[1,2-a]pyridin-6-ylamino)-2-oxoethyl]phenyl}-3,6-dihydropyridine-1(2H)-carboxylate] | 395 nM | 0.581 nM | 1980 nM
CC(C)Cn1cc(-c2ccc(C(=O)NCc3ccn4ccnc4c3)cc2)cn1 [Example 315, N-(imidazo[1,2-a]pyridin-7-ylmethyl)-4-[1-(2-methylpropyl)-1H-pyrazol-4-yl]benzamide] | 720 nM | 0.32 nM | 231 nM
O=C(NCc1ccn2ccnc2c1)c1ccc(-c2cnn(CC3COCCO3)c2)s1 (stereo not drawn) [Example 316, 5-[1-(1,4-dioxan-2-ylmethyl)-1H-pyrazol-4-yl]-N-(imidazo[1,2-a]pyridin-7-ylmethyl)thiophene-2-carboxamide] | 6.34 nM | 0.169 nM | 42.1 nM
O=C(NCc1ccn2ccnc2c1)c1ccc(-c2cnn(CCO)c2)s1 [Example 317, 5-[1-(2-hydroxyethyl)-1H-pyrazol-4-yl]-N-(imidazo[1,2-a]pyridin-7-ylmethyl)thiophene-2-carboxamide] | 542 nM | 0.282 nM | 317 nM
O=C(NCc1ccn2ccnc2c1)c1cnc(C2=CCN(C(=O)C3CCOCC3)CC2)s1 [Example 319, N-(imidazo[1,2-a]pyridin-7-ylmethyl)-2-[1-(tetrahydro-2H-pyran-4-ylcarbonyl)-1,2,3,6-tetrahydropyridin-4-yl]-1,3-thiazole-5-carboxamide] | 29.3 nM | 0.192 nM | 466 nM
CC(C)C(=O)N1CC=C(c2ncc(C(=O)NCc3ccn4ccnc4c3)s2)CC1 [Example 320, N-(imidazo[1,2-a]pyridin-7-ylmethyl)-2-[1-(2-methylpropanoyl)-1,2,3,6-tetrahydropyridin-4-yl]-1,3-thiazole-5-carboxamide] | 171 nM | 0.208 nM | 96.3 nM
CC[C@H](C)C(=O)N1CC[C@H](Oc2ccc(C(=O)NCc3ccn4ccnc4c3)cc2)C1 [Example 321, N-(imidazo[1,2-a]pyridin-7-ylmethyl)-4-({(3S)-1-[(2S)-2-methylbutanoyl]pyrrolidin-3-yl}oxy)benzamide] | 1130 nM | 0.792 nM | 3160 nM
CC(C)(C)OC(=O)N1CCC(c2ccc(C(=O)Nc3ccn4ccnc4c3)cc2)CC1 [Example 322, tert-butyl 4-[4-(imidazo[1,2-a]pyridin-7-ylcarbamoyl)phenyl]piperidine-1-carboxylate] | > 10000 nM | 34.1 nM | 6040 nM
